Results taken from US20050244335A1, “Methods and compositions related to increasing antitumor activity of chemotherapeutic agents” (priority 2004, published 2005).

Assay: Pharmacokinetics of carboplatin in nude mice bearing A549 xenografts
Assay type: in vivo
Conditions: for AUC / CL / Cmax / T1/2 / Vss: nude mice bearing A549 xenografts, carboplatin 60 mg/kg iv
Method: Pharmacokinetics and Tissue Distribution of Carboplatin. Pharmacokinetic studies were carried out using a protocol similar to that previously described (26) using metabolism cages. Female nude mice bearing human colon cancer LS174T xenografts or human lung cancer A549 xenografts were used (3 animals for each time point). Animals were pre-treated with DEX (s.c., 0.1 mg/day/mouse for 5 days) or saline (as controls) and, at 1 hr after the fifth dose of DEX, were given a single intravenously (i.v.) bolus administration of carboplatin (60 mg/kg) via a tail vein. At various times (5, 15, and 30 min, 1, 2, 4, 8, and 24 hr after carboplatin dosing), blood samples were collected in heparinized tubes and tissue samples removed. Plasma was separated by centrifugation at 20,000 g for 5 min. Tissues including liver, kidneys, spleen, and tumor were taken at various times and immediately blotted on Whatman No. 1 filter paper, trimmed of extraneous fat or connective tissue, weighed, and homogenized in 0.9% NaCl physiological saline (5 mL per gram of wet weight). The resultant homogenates were stored at −70° C. until further analysis. Bone marrow cells were harvested by flushing the femurs with sterile physiological saline as reported previously (30). Briefly, after removing the distal and proximal ends of femur, each end of the bone was punctured with a 20-gauge needle fitted with a 5 mL syringe containing 1 mL of sterile physiological saline (pre-weighed). The bone was then held with a forceps over a test tube and the needle was inserted into the hole in the proximal end. The 1 mL saline was flushed through the bone into the tube by applying gentle, steady pressure to the plunger. The syringe was then filled with 5 ml of air that was gently forced through the bone to remove the remaining saline and bone marrow in the shaft. The resultant bone marrow cell suspension was weighed and lysed by sonicating 5 times for periods of 10 sec. Following centrifugation at 20,000 g for 30 min, the supernatant was removed and stored at −70° C. until further analysis.
HPLC Analysis of Carboplatin in Plasma and Tissues. Carboplatin in biological samples was analyzed by an analytical procedure involving micro-filtration and reversed-phase HPLC (31). 200 μL of plasma or tissue homogenates or bone marrow suspension was added to the reservoir of a Centrifree™ micropartition system. The latter was capped and centrifuged at 2,000 g for 5 min. All filtrates were transferred into a new micro centrifuge tube and 6 μL of the filtrates was injected onto the HPLC column. The HPLC system consisted of a Hewlett Packard 1050 ChemStation with a UV detector (Agilent 1050 series). Determination of Carboplatin was achieved using a LiChrosorb™ diol (10 μm, 250×4.6 mm) analytical column with a LiChroCART 100 RP-18 guard column. The mobile phase for plasma was composed of 98:2 acetonitrile:H2O (vol/vol) and 89:11 acetonitrile: 0.015% H3PO4 (vol/vol) for urine and tissue samples. The flow rates were 2 mL/min (for plasma) and 1.1 mL/min (for urine and tissue samples). The column elute was monitored by UV at 229 nm. Quantitation of plasma or tissue carboplatin was carried out by using an external standard curve (0-4,000.0 μg/mL) that was freshly prepared on a daily basis. Linear regression and correlation analysis were carried out to establish the standard peak-area/concentration curves for carboplatin.
Data and Statistical Analysis.

With `N.N.O=C([O-])C1(C(=O)[O-])CCC1.[Pt+2]` [carboplatin] the “increase in tumor AUC by DEX pretreatment” value (A549 nude mice) was 50%, the AUC (bone marrow, DEX (+)) was 517210 ng·h/mL and the CL (bone marrow, DEX (+)) was 0.01 mL/g/h. The Cmax (bone marrow, DEX (+)) was 27290 ng/mL, the T1/2 (bone marrow, DEX (+)) was 30 min and the Vss (bone marrow, DEX (+)) was 2.72 mL/g. For the same compound, the AUC (bone marrow, DEX (−)) was 641040 ng·h/mL, the CL (bone marrow, DEX (−)) was 0.01 mL/g/h and the Cmax (bone marrow, DEX (−)) was 32580 ng/mL. For the same compound, the T1/2 (bone marrow, DEX (−)) was 30 min, the Vss (bone marrow, DEX (−)) was 1.97 mL/g and the AUC (liver, DEX (+)) was 21680 ng·h/mL. For the same compound, the CL (liver, DEX (+)) was 4.79 mL/g/h, the Cmax (liver, DEX (+)) was 5910 ng/mL and the T1/2 (liver, DEX (+)) was 60 min. It also gave a Vss (liver, DEX (+)) of 9.05 mL/g, an AUC (liver, DEX (−)) of 26320 ng·h/mL and a CL (liver, DEX (−)) of 3.99 mL/g/h. For the same compound, the Cmax (liver, DEX (−)) was 7000 ng/mL, the T1/2 (liver, DEX (−)) was 60 min and the Vss (liver, DEX (−)) was 8.31 mL/g. For the same compound, the AUC (plasma, DEX (+)) was 66080 ng·h/mL, the CL (plasma, DEX (+)) was 0.91 mL/g/h and the Cmax (plasma, DEX (+)) was 411890 ng/mL. For the same compound, the T1/2 (plasma, DEX (+)) was 6.6 min, the Vss (plasma, DEX (+)) was 0.15 mL/g and the AUC (plasma, DEX (−)) was 55220 ng·h/mL. For the same compound, the CL (plasma, DEX (−)) was 1.09 mL/g/h, the Cmax (plasma, DEX (−)) was 357340 ng/mL and the T1/2 (plasma, DEX (−)) was 6.6 min. It also gave a Vss (plasma, DEX (−)) of 0.17 mL/g, an AUC (spleen, DEX (+)) of 75590 ng·h/mL and a CL (spleen, DEX (+)) of 0.79 mL/g/h. For the same compound, the Cmax (spleen, DEX (+)) was 482140 ng/mL, the T1/2 (spleen, DEX (+)) was 6.6 min and the Vss (spleen, DEX (+)) was 0.12 mL/g. It also gave an AUC (spleen, DEX (−)) of 359440 ng·h/mL, a CL (spleen, DEX (−)) of 0.17 mL/g/h and a Cmax (spleen, DEX (−)) of 341990 ng/mL. It also gave a T1/2 (spleen, DEX (−)) of 43.8 min, a Vss (spleen, DEX (−)) of 0.18 mL/g and an AUC (tumor, DEX (+)) of 15480 ng·h/mL. It also gave a CL (tumor, DEX (+)) of 3.88 mL/g/h, a Cmax (tumor, DEX (+)) of 64090 ng/mL and a T1/2 (tumor, DEX (+)) of 10.2 min. For the same compound, the Vss (tumor, DEX (+)) was 0.94 mL/g, the AUC (tumor, DEX (−)) was 10160 ng·h/mL and the CL (tumor, DEX (−)) was 5.90 mL/g/h. The Cmax (tumor, DEX (−)) was 32150 ng/mL, the T1/2 (tumor, DEX (−)) was 13.2 min and the Vss (tumor, DEX (−)) was 1.87 mL/g.
